# From patent US9580411B2, “Substituted sulfonamide compounds” (Hoffmann-La Roche Inc., priority 2012, dated 2017)
# Target: hTRPA1 (Homo sapiens (Human), UniProt O75762)
# Experiment: Dose response calcium flux assay (FLIPR), ChanTest hTRPA1-CHO stably transfected cell line
# Format: cell-based
# Details: CHO-K1 Tet-On human TRPA1 cells, cinnamaldehyde agonist (final 100 uM)
# Protocol: IC50 Determinations of Exemplified Compounds Dose Response Assay: Chan Test hTRPA1-CHO Stably Transfected Cell Line
# CHO-K1 Tet-On_HOMSA_TRPA1_Clone_20
# Chinese Hamster Ovary cells, inducible expression
# • Ham's F-12 with 10% tetracycline-free FBS • 1× penicillin-streptomycin • 1× glutamax • 0.01 mg/ml Blasticidin • 0.40 mg/ml Zeocin • The cell line doubling rate was ˜15 hours. […] Experiments were run at 24 hours post induction. Plating Conditions CHOK1/TRPA1 Cells: • Harvested cells with 0.025% trypsin/EDTA. • Resuspended cells in growth media without selection antibiotics. • Measured cell density and diluted to 2.4×10^5 cells/ml in media containing 1 ug/ml Doxycycline Plate 25 ul/well into 384 well black/clear tissue culture-treated plates. • Incubated overnight at 37° C. Calcium Flux Assay: Day of Assay: Reagents: • Replacement Buffer: Hank's Balanced Salt Solution, 20 mM HEPES along with 0.005% BSA and 2× Probenecid • Dye Loading Buffer: Cal-3 NW Calcium dye was prepared by dissolving the contents of one vial with […] Hank's Balanced Salt Solution containing 20 mM HEPES. • Control compounds for CHOK1/TRPA1 cells: AP-18, stock 10 mM, prepare 3.5× compound dilution in a Compound Buffer (HBSS/20 mM HEPES/0.005% BSA)—final concentration 10 uM. • Preparation of Cinnamaldehyde (agonist addition): FW=132.16 • Specific gravity=1.046 gm/cc • 1.32 gm/1.046 gm/cc=1.26 ml of stock • Add 1.74 ml DMSO=3.3 M stock • Working solution 4.5× (final 100 uM in Compound Buffer: HBSS/20 mM HEPES/0.005% BSA) • Compounds dilutions were prepared from 5 or 10 mM stock (100% DMSO): • Adjustments of volumes and concentrations were made at time of titration to reflect desired final assay concentrations. • Compounds were tested at either 20 μM three folds dilution 11 steps out or 30 μM two folds dilution 11 steps out. • 3 μl of diluted compound were transferred into Weidmann 384-well plate in duplicates side-by-side. • Compound plates were resuspended with 100 ul of HBSS/20 mM HEPES/0.005% BSA buffer (Compound Buffer): • column 1A-H: buffer/DMSO (bk) • column 2A-H: AP-18 (control antagonist for CHOK1 TRPA1 cells) • column 1I-P: ATP (control for CHOK1 teton cells) • column 2 I-P: 2APB (control antagonist for CHOK1/TRPM8 cells). Growth media was removed from the cell plates (20 ul) and 20 ul of the Replacement Buffer was added followed by addition of 25 ul of diluted dye. All three steps were performed using a Plate Washer BioTek 407. The plates were then incubated for 30′ at RT.
# After incubation, both the cell and compound plates were brought to the FLIPR and 20 ul of the diluted compounds/antagonist/bk were transferred to the cell plates by the FLIPR. Plates were then incubated for 30′ at room temperature. After 30′ incubation, plates were returned to the FLIPR and 20 ul of 4.5× Cinnamaldehyde was added to the cell plates. During the compound addition as well as agonist addition, fluorescence readings were taken simultaneously from all 384 wells of the cell plate every 1.5 seconds. Five readings were taken to establish a stable baseline, then 20 ul of sample was rapidly (30 ul/sec) and simultaneously added to each well of the cell plate. The fluorescence was continuously monitored before, during and after sample/agonist addition for a total elapsed time of 100 seconds (compound addition) and 120 seconds (agonist addition). Responses (increase in peak fluorescence) in each well following agonist addition was determined. The initial fluorescence reading from each well, prior to ligand stimulation, was used a zero baseline value for the data from that well.
# Chain of hTRPA1 (O75762 whole entry): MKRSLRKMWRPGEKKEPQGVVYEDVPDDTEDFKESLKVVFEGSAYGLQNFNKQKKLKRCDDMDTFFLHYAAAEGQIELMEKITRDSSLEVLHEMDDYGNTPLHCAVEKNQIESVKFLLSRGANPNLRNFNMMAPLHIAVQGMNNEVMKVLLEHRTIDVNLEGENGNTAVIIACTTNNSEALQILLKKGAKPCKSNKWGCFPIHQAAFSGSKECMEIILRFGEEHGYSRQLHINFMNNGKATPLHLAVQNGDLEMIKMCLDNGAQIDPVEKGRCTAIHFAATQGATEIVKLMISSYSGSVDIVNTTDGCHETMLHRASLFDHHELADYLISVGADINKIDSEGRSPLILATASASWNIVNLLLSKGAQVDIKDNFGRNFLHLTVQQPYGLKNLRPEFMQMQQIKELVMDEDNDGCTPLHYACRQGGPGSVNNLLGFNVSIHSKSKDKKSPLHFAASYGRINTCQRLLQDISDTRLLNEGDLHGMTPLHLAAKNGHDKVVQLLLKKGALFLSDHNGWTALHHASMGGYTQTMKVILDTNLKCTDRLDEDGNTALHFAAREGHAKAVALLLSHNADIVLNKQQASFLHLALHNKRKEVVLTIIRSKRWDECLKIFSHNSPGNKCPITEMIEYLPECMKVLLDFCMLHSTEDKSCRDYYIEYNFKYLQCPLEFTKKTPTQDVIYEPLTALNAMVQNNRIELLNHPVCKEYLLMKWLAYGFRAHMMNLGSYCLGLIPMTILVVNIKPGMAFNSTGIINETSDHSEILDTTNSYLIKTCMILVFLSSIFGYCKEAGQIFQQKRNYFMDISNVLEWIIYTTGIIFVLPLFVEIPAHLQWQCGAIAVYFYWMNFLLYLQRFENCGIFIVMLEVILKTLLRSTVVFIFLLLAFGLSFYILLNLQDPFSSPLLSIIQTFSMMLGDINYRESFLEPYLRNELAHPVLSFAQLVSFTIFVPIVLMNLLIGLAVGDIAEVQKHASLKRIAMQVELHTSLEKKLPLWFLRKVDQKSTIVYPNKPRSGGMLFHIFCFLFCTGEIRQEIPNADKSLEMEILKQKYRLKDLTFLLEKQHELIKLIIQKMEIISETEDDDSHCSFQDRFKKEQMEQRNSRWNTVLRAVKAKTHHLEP
row,Compound,IC50 [nM]
1,"CN(C(CO)C(=O)NCc1cccc(-c2ccc(C(F)(F)F)cc2)c1)S(=O)(=O)c1ccc(F)cc1 (stereo not drawn) [Example 51, 2-[(4-Fluoro-benzenesulfonyl)-methyl-amino]-3-hydroxy-N-(4′-trifluoromethyl-biphenyl-3-ylmethyl)-propionamide]",130
2,"COC[C@@H](C(=O)NCc1cccc(-c2ccc(C(F)(F)F)cc2)c1)N(C)S(=O)(=O)c1ccc(F)cc1 [Example 52, (S)-2-[(4-Fluoro-benzenesulfonyl)-methyl-amino]-3-methoxy-N-(4′-trifluoromethyl-biphenyl-3-ylmethyl)-propionamide]",98
3,"O=C(CN(CC1COC1)S(=O)(=O)c1ccc(F)cc1)NCc1cccc(-c2ccc(C(F)(F)F)cc2)c1 [Example 54, 2-[(4-Fluoro-benzenesulfonyl)-oxetan-3-ylmethyl-amino]-N-(4′-trifluoron-3-ylmethyl-amino]-N-(4′-trifluoromethyl-biphenyl-3-ylmethyl)-acetamide]",1760
4,"CC(C)N(CC(=O)NCc1cc(-c2ccc(C(F)(F)F)nc2)ccn1)S(=O)(=O)c1ccc(F)cc1 [Example 55, 2-[(4-Fluoro-benzenesulfonyl)-isopropyl-amino]-N-(6-trifluoromethyl-[3,4′]bipyridinyl-2′-ylmethyl)-acetamide]",130
5,"CC(C)N(CC(=O)NCc1cc(-c2ccc(C(F)(F)F)cc2)ncn1)S(=O)(=O)c1cccnc1 [Example 56, 2-[Isopropyl-(pyridine-3-sulfonyl)-amino]-N-[6-(4-trifluoromethyl-phenyl)-pyrimidin-4-ylmethyl]-acetamide]",550
6,"CC(C)N(CC(=O)NCc1cncc(-c2ccc(C(F)(F)F)cc2)c1)S(=O)(=O)c1ccc(F)cc1 [Example 57, 2-[(4-Fluoro-benzenesulfonyl)-isopropyl-amino]-N-[5-(4-trifluoromethyl-phenyl)-pyridin-3-ylmethyl]-acetamide]",180
7,"CC(C)N(CC(=O)NCc1ccnc(-c2ccc(C(F)(F)F)nc2)c1)S(=O)(=O)c1ccc(F)cc1 [Example 58, 2-[(4-Fluoro-benzenesulfonyl)-isopropyl-amino]-N-(6′-trifluoromethyl-[2,3′]bipyridinyl-4-ylmethyl)-acetamide]",230
8,"CC(C)N(CC(=O)NCc1ccnc(-c2ccc(C(F)(F)F)cc2)c1)S(=O)(=O)c1cccc(F)c1 [Example 59, 2-[(3-Fluoro-benzenesulfonyl)-isopropyl-amino]-N-[2-(4-trifluoromethyl-phenyl)-pyridin-4-ylmethyl]-acetamide]",99
9,"O=C(CN(C1COC1)S(=O)(=O)c1ccc(F)cc1)NCc1cccc(-c2ccc(C(F)(F)F)cc2)c1 [Example 60, 2-[(4-Fluoro-benzenesulfonyl)-oxetan-3-yl-amino]-N-(4′-trifluoromethyl-biphenyl-3-ylmethyl)-acetamide]",200
10,"CC(C)N(CC(=O)NCc1cc(-c2ccc(C(F)(F)F)nc2)ncn1)S(=O)(=O)c1ccc(F)cc1 [Example 61, 2-[(4-Fluoro-benzenesulfonyl)-isopropyl-amino]-N-[6-(6-trifluoromethyl-pyridin-3-yl)-pyrimidin-4-ylmethyl]-acetamide]",140
11,"CC(C)N(CC(=O)NCc1cc(F)cc(-c2ccc(C(F)(F)F)nc2)c1)S(=O)(=O)c1ccc(F)cc1 [Example 63, 2-[(4-Fluoro-benzenesulfonyl)-isopropyl-amino]-N-[3-fluoro-5-(6-trifluoromethyl-pyridin-3-yl)-benzyl]-acetamide]",38
12,"CC(C)N(CC(=O)NCc1cc(-c2ccc(C(F)(F)F)cc2)ncn1)S(=O)(=O)c1ccc(Cl)nc1 [Example 64, 2-[(6-Chloro-pyridine-3-sulfonyl)-isopropyl-amino]-N-[6-(4-trifluoromethyl-phenyl)-pyrimidin-4-ylmethyl]-acetamide]",83
13,"CC(C)N(CC(=O)NCc1cc(-c2ccc(C(F)(F)F)cc2)ncn1)S(=O)(=O)c1ccccc1C#N [Example 65, 2-[(2-Cyano-benzenesulfonyl)-isopropyl-amino]-N-[6-(4-trifluoromethyl-phenyl)-pyrimidin-4-ylmethyl]-acetamide]",3860
14,"CC(C)N(CC(=O)NCc1cccc(-c2ccc(C(F)(F)F)nn2)c1)S(=O)(=O)c1ccc(F)cc1 [Example 66, 2-[(4-Fluoro-benzenesulfonyl)-isopropyl-amino]-N-[3-(6-trifluoromethyl-pyridazin-3-yl)-benzyl]-acetamide]",170
15,"CC(C)N(CC(=O)NCc1cc(-c2ccc(C(F)(F)F)cc2)ncn1)S(=O)(=O)c1cnccn1 [Example 67, 2-[Isopropyl-(pyrazine-2-sulfonyl)-amino]-N-[6-(4-trifluoromethyl-phenyl)-pyrimidin-4-ylmethyl]-acetamide]",380
16,"CC(C)N(CC(=O)NCc1cccc(-c2cnc(C(F)(F)F)nc2)c1)S(=O)(=O)c1ccc(F)cc1 [Example 68, 2-[(4-Fluoro-benzenesulfonyl)-isopropyl-amino]-N-[3-(2-trifluoromethyl-pyrimidin-5-yl)-benzyl]-acetamide]",47
17,"CC(C)N(CC(=O)NCc1cc(-c2ccc(C(F)(F)F)cc2)ncn1)S(=O)(=O)c1ccc(F)c(F)c1 [Example 69, 2-[(3,4-Difluoro-benzenesulfonyl)-isopropyl-amino]-N-[6-(4-trifluoromethyl-phenyl)-pyrimidin-4-ylmethyl]-acetamide]",19
18,"CC(C)N(CC(=O)NCc1ccc(F)c(-c2cnc(C(F)(F)F)nc2)c1)S(=O)(=O)c1ccc(F)cc1 [Example 70, 2-[(4-Fluoro-benzenesulfonyl)-isopropyl-amino]-N-[4-fluoro-3-(2-trifluoromethyl-pyrimidin-5-yl)-benzyl]-acetamide]",48
19,"CC(C)N(CC(=O)NCc1cccc(-c2cnc(C(F)(F)F)cn2)c1)S(=O)(=O)c1ccc(F)cc1 [Example 71, 2-[(4-Fluoro-benzenesulfonyl)-isopropyl-amino]-N-[3-(5-trifluoromethyl-pyrazin-2-yl)-benzyl]-acetamide]",79
20,"CC(C)N(CC(=O)NCc1cccc(-c2cnc(C(F)(F)F)cn2)c1)S(=O)(=O)c1ccc(Cl)nc1 [Example 72, 2-[(6-Chloro-pyridine-3-sulfonyl)-isopropyl-amino]-N-[3-(5-trifluoromethyl-pyrazin-2-yl)-benzyl]-acetamide]",233
21,"CC(C)N(CC(=O)NCc1cccc(-c2ccc(C(F)(F)F)nn2)c1)S(=O)(=O)c1ccc(Cl)nc1 [Example 73, 2-[(6-Chloro-pyridine-3-sulfonyl)-isopropyl-amino]-N-[3-(6-trifluoromethyl-pyridazin-3-yl)-benzyl]-acetamide]",682
22,"CC(C)N(CC(=O)NCc1ccnc(-c2cnc(C(F)(F)F)nc2)c1)S(=O)(=O)c1ccc(F)cc1 [Example 74, 2-[(4-Fluoro-benzenesulfonyl)-isopropyl-amino]-N-[2-(2-trifluoromethyl-pyrimidin-5-yl)-pyridin-4-ylmethyl]-acetamide]",298
23,"CC(C)N(CC(=O)NCc1cc(-c2ccc(C(F)(F)F)cc2)ncn1)S(=O)(=O)c1ccc(Cl)s1 [Example 75, 2-[(5-Chloro-thiophene-2-sulfonyl)-isopropyl-amino]-N-[6-(4-trifluoromethyl-phenyl)-pyrimidin-4-ylmethyl]-acetamide]",25
24,"CC(C)N(CC(=O)NCc1cc(-c2ccc(C(F)(F)F)nc2)ncn1)S(=O)(=O)c1ccc(Cl)s1 [Example 76, 2-[(5-Chloro-thiophene-2-sulfonyl)-isopropyl-amino]-N-[6-(6-trifluoromethyl-pyridin-3-yl)-pyrimidin-4-ylmethyl]-acetamide]",20
